Key:
Carbonic anhydrase 9 = Carbonic anhydrase 9 (Homo sapiens, UniProt Q16790)
Description: Inhibitory activity against human carbonic anhydrase IX was determined

Carbonic anhydrase 4 = biological target: T1, Carbonic anhydrase 4 (Bos taurus, UniProt Q95323)
T1 sequence (Q95323 whole entry): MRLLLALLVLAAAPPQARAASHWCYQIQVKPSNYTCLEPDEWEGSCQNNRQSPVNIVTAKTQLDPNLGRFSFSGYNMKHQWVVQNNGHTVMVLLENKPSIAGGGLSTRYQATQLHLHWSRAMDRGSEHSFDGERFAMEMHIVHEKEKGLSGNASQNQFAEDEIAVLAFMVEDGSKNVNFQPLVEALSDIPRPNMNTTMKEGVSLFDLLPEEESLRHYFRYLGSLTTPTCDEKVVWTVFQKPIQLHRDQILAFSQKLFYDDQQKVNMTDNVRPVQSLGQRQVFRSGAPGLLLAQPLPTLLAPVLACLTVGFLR
Description: Inhibitory activity against bovine carbonic anhydrase IV was determined

Oryctolagus cuniculus [1] = assay: Variation of intraocular pressure in fifth day at a dose of 30 mg/kg by systemic administration in hypertensive rabbits; assay type: functional, Eye
Carbonic anhydrase 2 = Carbonic anhydrase 2 (Homo sapiens, UniProt P00918)
Description: Inhibitory activity against human carbonic anhydrase II was determined

Carbonic anhydrase 1 = Carbonic anhydrase 1 (Homo sapiens, UniProt P00915)
Description: Inhibitory activity against human carbonic anhydrase I was determined

Oryctolagus cuniculus [2] = species on record: Oryctolagus cuniculus; conditions: dose 30 mg/kg
Description: Variation of intraocular pressure in sixth day at a dose of 30 mg/kg by systemic administration in hypertensive rabbits

Oryctolagus cuniculus [3] = species on record: Oryctolagus cuniculus; conditions: dose 30 mg/kg; remark: listed apart in the source
Description: Variation of intraocular pressure in third day at a dose of 30 mg/kg by systemic administration in hypertensive rabbits

Oryctolagus cuniculus [4] = species on record: Oryctolagus cuniculus; conditions: dose 30 mg/kg; remark: listed apart in the source
Description: Variation of intraocular pressure in day one at a dose of 30 mg/kg by systemic administration in hypertensive rabbits

Oryctolagus cuniculus [5] = species on record: Oryctolagus cuniculus; conditions: dose 30 mg/kg; remark: listed apart in the source
Description: Variation of intraocular pressure in fourth day at a dose of 30 mg/kg at a dose by systemic administration in hypertensive rabbits

Oryctolagus cuniculus [6] = species on record: Oryctolagus cuniculus; conditions: dose 30 mg/kg; remark: listed apart in the source
Description: Variation of intraocular pressure in second day at a dose of 30 mg/kg by systemic administration in hypertensive rabbits

Oryctolagus cuniculus [7] = species on record: Oryctolagus cuniculus; conditions: dose 30 mg/kg; remark: listed apart in the source
Description: Variation of intraocular pressure in seventh day at a dose of 30 mg/kg by systemic administration in hypertensive rabbits

Sequence of Carbonic anhydrase 1 (P00915 whole entry): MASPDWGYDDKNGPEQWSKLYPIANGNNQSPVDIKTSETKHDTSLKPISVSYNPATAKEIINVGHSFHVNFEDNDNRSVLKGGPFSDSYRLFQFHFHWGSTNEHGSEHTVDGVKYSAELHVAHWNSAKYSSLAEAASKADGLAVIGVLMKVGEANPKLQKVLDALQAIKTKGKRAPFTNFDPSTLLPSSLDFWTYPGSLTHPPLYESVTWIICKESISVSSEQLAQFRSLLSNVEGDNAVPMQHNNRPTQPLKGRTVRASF

| SMILES | IC50 (Carbonic anhydrase 9) [µM] | IC50 (Carbonic anhydrase 4) [µM] | Delta IOP (Oryctolagus cuniculus [1]) [mmHg] | IC50 (Carbonic anhydrase 2) [µM] | IC50 (Carbonic anhydrase 1) [µM] | Delta IOP (Oryctolagus cuniculus [2]) [mmHg] | Delta IOP (Oryctolagus cuniculus [3]) [mmHg] | Delta IOP (Oryctolagus cuniculus [4]) [mmHg] | Delta IOP (Oryctolagus cuniculus [5]) [mmHg] | Delta IOP (Oryctolagus cuniculus [6]) [mmHg] | Delta IOP (Oryctolagus cuniculus [7]) [mmHg] |
| --- | --- | --- | --- | --- | --- | --- | --- | --- | --- | --- | --- |
| COc1ccc(-n2nc(C(F)(F)F)cc2-c2ccc(Cl)cc2)cc1 [SC-560] | > 100 | > 100 | 0.3 | > 100 | > 100 | 0.41 | 0.25 | 0.23 | 0.34 | 0.017 | 0.52 |
| Cc1ccc(-c2cc(C(F)(F)F)nn2-c2ccc(S(N)(=O)=O)cc2)cc1 [CELECOXIB] | 0.016 | – | – | – | – | – | – | – | – | – | – |
| CS(=O)(=O)c1ccc(-n2cc(-c3ccc(F)cc3)c(C(F)(F)F)n2)cc1 | > 100 | > 100 | 0.16 | > 100 | > 100 | 0.34 | 0.22 | 0.14 | 0.25 | 0.31 | 0.16 |

Reference: ChEMBL document CHEMBL1148392 (J Med Chem, 2004)
